Molecular target: ATP-dependent translocase ABCB1 (Homo sapiens, UniProt P08183)
Assay: TP_TRANSPORTER: transepithelial transport in Caco-2 cells
Format: functional, cell-based

Chain of ATP-dependent translocase ABCB1 (P08183 whole entry): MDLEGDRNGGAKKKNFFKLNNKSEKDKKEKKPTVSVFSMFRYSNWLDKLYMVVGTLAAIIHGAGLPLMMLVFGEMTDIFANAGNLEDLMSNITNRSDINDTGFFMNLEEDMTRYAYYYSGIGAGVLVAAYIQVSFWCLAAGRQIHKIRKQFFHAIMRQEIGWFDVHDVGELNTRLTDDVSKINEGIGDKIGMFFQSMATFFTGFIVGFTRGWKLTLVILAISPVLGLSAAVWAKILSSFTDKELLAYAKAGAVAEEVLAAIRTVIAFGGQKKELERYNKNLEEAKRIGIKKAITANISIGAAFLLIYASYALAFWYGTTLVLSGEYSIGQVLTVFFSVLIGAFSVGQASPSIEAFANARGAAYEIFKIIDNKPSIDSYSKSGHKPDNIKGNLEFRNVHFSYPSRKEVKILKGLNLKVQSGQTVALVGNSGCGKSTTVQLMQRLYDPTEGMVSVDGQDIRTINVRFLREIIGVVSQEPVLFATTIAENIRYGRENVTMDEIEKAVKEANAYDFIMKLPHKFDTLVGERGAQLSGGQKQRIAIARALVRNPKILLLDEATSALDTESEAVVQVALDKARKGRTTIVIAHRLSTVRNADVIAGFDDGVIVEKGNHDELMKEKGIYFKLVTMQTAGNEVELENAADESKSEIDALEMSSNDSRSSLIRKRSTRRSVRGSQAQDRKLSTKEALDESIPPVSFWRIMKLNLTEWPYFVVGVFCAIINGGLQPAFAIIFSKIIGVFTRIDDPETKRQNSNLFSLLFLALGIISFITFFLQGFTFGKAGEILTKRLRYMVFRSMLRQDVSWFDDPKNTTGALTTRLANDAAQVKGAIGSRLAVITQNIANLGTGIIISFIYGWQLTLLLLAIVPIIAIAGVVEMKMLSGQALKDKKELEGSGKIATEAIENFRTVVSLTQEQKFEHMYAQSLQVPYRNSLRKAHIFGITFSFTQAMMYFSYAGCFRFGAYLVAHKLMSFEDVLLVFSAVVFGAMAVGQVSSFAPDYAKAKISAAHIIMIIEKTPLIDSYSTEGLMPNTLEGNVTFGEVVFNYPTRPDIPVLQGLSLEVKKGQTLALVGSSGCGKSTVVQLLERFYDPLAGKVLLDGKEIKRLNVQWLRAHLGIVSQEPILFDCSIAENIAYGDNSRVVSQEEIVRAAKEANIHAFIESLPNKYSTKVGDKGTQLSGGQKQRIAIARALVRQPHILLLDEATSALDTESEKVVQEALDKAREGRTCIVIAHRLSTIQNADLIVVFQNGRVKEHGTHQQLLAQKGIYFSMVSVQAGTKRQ

| Structure (SMILES) | Activity |
| --- | --- |
| C[C@H]1O[C@@H](O[C@H]2[C@@H](O)C[C@H](O[C@H]3[C@@H](O)C[C@H](O[C@H]4CC[C@@]5(C)[C@H](CC[C@@H]6[C@@H]5C[C@@H](O)[C@]5(C)[C@@H](C7=CC(=O)OC7)CC[C@]65O)C4)O[C@@H]3C)O[C@@H]2C)C[C@H](O)[C@@H]1O [DIGOXIN] | substrate [+] |
| COCCc1ccc(OCC(O)CNC(C)C)cc1 (configuration not stated) [METOPROLOL] | is not a substrate [-] |
